Laboratory results as given in PMC9697519, “New Theonellapeptolides from Indonesian Marine Sponge Theonella swinhoei as Anti-Austerity Agents” (Marine Drugs, 2022).
Read-outs that look alike come from different tables or passages of the source. Where a SMILES comes first, the peptide text is derived from it. Bridges are numbered along the chain shown (N, C = ends). [ ]: non-standard residue; d: D form. The star is where a group is joined. dNMeaIle = CC[C@H](C)[C@@H](NC)C(=O)O; d(aIle) = CC[C@H](C)[C@@H](N)C(=O)O; NMeI = CC[C@H](C)[C@H](NC)C(=O)O; dNMeL = CN[C@H](CC(C)C)C(=O)O; NMeV = CN[C@H](C(=O)O)C(C)C; Methoxyacetyl = COCC(=O)*; βAla = NCCC(=O)O

Legend:
[1] = system: HepG2 (human liver cancer cells); conditions: 24 h
Method: (§1) Finally, the anti-austerity activity on two other different cancer cell lines was studied. Preferential cytotoxicity was assessed in a nutrient-deprived medium. Esumi et al. hypothesized that tolerance to nutrient deprivation as well as angiogenesis might be an important factor in tumor progression under hypovascular condition.
(§2) Briefly, MIA PaCa-2, HepG2 and MCF-7 Cells (2 × 10^4 cells/well) were seeded in 96-well plates and incubated in fresh DMEM. The cells were washed with Dulbecco’s phosphate-buffered saline (PBS) before the medium was replaced with DMEM or NDM containing serial dilutions of the test samples. After 24 h of incubation, the cells were washed with PBS, and 100 μL of DMEM containing 10% WST-8 cell counting kit solution was added to each well. After 3 h of incubation, the absorbance was measured at 450 nm. Cell viability was calculated from the mean values for three wells. The preferential cytotoxicity was expressed as the concentration at which 50% of cells died preferentially in NDM (PC50).

[2] = system: MCF-7 (human breast cancer cells); conditions: 24 h
Method: as §1, §2

[3] = system: human pancreatic cancer cell line MIA PaCa-2; conditions: 24 h
Method: Data are presented as preferential cytotoxicity (PC50) values, which represent the concentration that kills 50% of cancer cells in a nutrient-deprived medium (NDM) without any toxicity in a nutrient-rich medium DMEM (Dulbecco’s Modified Eagle Medium).
as §2
Pancreatic cancer cells (MIA PaCa-2 cells) were kindly provided by Dr. Suresh Awale, an Associate Professor at Institute of Natural Medicine, University Toyama, Toyama, Japan. MIA PaCa-2 (RBRC-RCB2094), human pancreatic cancer cell lines were purchased from Riken BRC cell bank.

[4] = system: MIA PaCa-2 cells; assay: Morphological analysis, EB/AO double-staining; type: cell-based, human; conditions: 5 and 10 μM, NDM, 24 h, 24-well plate
Method: Thus, more detailed studies were performed on the major compound theonellapeptolide IId (4). Its effect on morphology status of MIA PaCa-2 cells under starvation condition was studied using a double-staining assay with EB (ethidium bromide) and AO (acridine orange). The membranes of dead or dying cells are penetrated by EB and staining in red while living cells are stained by AO, a cell-membrane-permeable dye emitting bright green fluorescence. Both AO and EB stains are known as DNA-intercalating agents. During cell death, EB and AO enter into the cell after the integrity of the cell membrane is disrupted, which facilitates the emission of orange fluorescence. […] In Figure 6A, treatment with 4 led to a dose-dependent increase in EB-stained cells emitting red fluorescence and showing drastic alteration of cell morphology. […] Real-time anti-austerity potential tracking of 4 showing morphological changes in MIA PaCa-2 cells under NDM was monitored using a Nikon sCMOS camera oxford instrument, Hamamatsu Photonics/Ti-E, for 24 h. […]
Figure 6 (A) Morphological changes of MIA PaCa-2 cells induced by 4 in a nutrient-deprived medium (NDM). […] The cells were stained with ethidium bromide (EB) and acridine orange (AO), and photographed in the fluorescence (red and green) under phase contrast modes using a Nikon sCMOS camera oxford instrument, Hamamatsu Photonics/Ti-E. (B) Structure of bioactive compound 4. […]

[5] = system: MIA PaCa-2 cells; assay: Time-lapse live imaging under NDM; type: cell-based, human; conditions: 10 μM in NDM, 37 °C, 5% CO2, imaged 24 h
Method: Thus, more detailed studies were performed on the major compound theonellapeptolide IId (4). Its effect on morphology status of MIA PaCa-2 cells under starvation condition was studied using a double-staining assay with EB (ethidium bromide) and AO (acridine orange). The membranes of dead or dying cells are penetrated by EB and staining in red while living cells are stained by AO, a cell-membrane-permeable dye emitting bright green fluorescence. Both AO and EB stains are known as DNA-intercalating agents. During cell death, EB and AO enter into the cell after the integrity of the cell membrane is disrupted, which facilitates the emission of orange fluorescence. In this study, MIA PaCa-2 cells treated with 5 and 10 μM of theonellapeptolide IId (4) were incubated in starvation condition (NDM) for 24 h, and stained with the EB and AO dyes. In Figure 6A, treatment with 4 led to a dose-dependent increase in EB-stained cells emitting red fluorescence and showing drastic alteration of cell morphology. […] To show the details of cell death in real time, live evidence of the anticancer potential of 4 was studied. A time-lapse live imaging anti-pancreatic cancer experiment under NDM condition was performed for the first time in a multi position in the dish, for monitoring the effect of 4. Moreover, MIA PaCa-2 cells were treated with 10 μM of compound 4 in NDM and incubated at 37 °C at 5% CO2. Real-time anti-austerity potential tracking of 4 showing morphological changes in MIA PaCa-2 cells under NDM was monitored using a Nikon sCMOS camera oxford instrument, Hamamatsu Photonics/Ti-E, for 24 h. Images were captured every 10 min by rotating at several fixed positions in the dish under the phase contrast mode on a CCD Camera imaging system for 24 h. Treatment with 4 under NDM inhibited cell mobility immediately within 60 min and altered morphology of MIA PaCa-2 cells after 4 h was observed, then cell death started after 8 h, finally in 12 h complete cell death was observed (Figure 7, Movies S1 and S2, Supporting Information). In the control, MIA PaCa-2 cells survived 24 h until the end of the experiment in the NDM (Figure 7). Thus, the result of this study provided the first simultaneous multi-site live evidence of the anti-pancreatic cancer therapeutic potential of the compound theonellapeptolide IId (4) against MIA PaCa-2 cells as marine-based anti-austerity agents. […]
Real-time anti-austerity potential tracking anti-pancreatic cancer activity of 4 by showing morphological changes in MIA PaCa-2 cells under NDM was monitored using a Nikon sCMOS camera Oxford instrument, Hamamatsu Photonics/Ti-E, for 24 h. […]

CC[C@H](C)[C@H]1C(=O)NCCC(=O)N[C@H]([C@@H](C)CC)C(=O)N(C)[C@@H](C(C)C)C(=O)N[C@@H](C)C(=O)NCCC(=O)N[C@H](CC(C)C)C(=O)N(C)[C@H]([C@@H](C)CC)C(=O)O[C@H](C)[C@H](NC(=O)[C@@H](CC(C)C)N(C)C(=O)[C@@H](NC(=O)COC)C(C)C)C(=O)NCCC(=O)N[C@H](CC(C)C)C(=O)N1C [Compound 4, theonellapeptolide IId] (Methoxyacetyl-V[dNMeL]T[βAla][dL][NMeI][βAla][d(aIle)][NMeV]A[βAla][dL][dNMeaIle]; ester 3-C)
IC50 ([1]; read-out: IC50 in DMEM, HepG2, nutrient-rich DMEM, WST-8, absorbance 450 nm, mean of three wells): > 100 µM
IC50 ([1]; read-out: PC50 in NDM, HepG2, preferential cytotoxicity, nutrient-deprived medium (NDM), WST-8, mean of three wells): > 100 µM
IC50 ([2]; read-out: IC50 in DMEM, MCF7, nutrient-rich DMEM, WST-8, absorbance 450 nm, mean of three wells): > 100 µM
IC50 ([2]; read-out: PC50 in NDM, MCF7, preferential cytotoxicity, nutrient-deprived medium (NDM), WST-8, mean of three wells): > 100 µM
IC50 ([3]; read-out: IC50 in DMEM, MIA PaCa-2, nutrient-rich DMEM, WST-8, absorbance 450 nm, mean of three wells): 38.2 µM
IC50 ([3]; read-out: PC50 in NDM, MIA PaCa-2, preferential cytotoxicity, nutrient-deprived medium (NDM), WST-8, mean of three wells): 7.8 µM
EB/AO staining of cells [4]: exclusive red EB
time after which altered cell morphology was observed [5]: 4 h
time after which cell death started [5]: 8 h
time to complete cell death [5]: 12 h
time to inhibition of cell mobility [5]: ≤ 60 min
